Source: patent publication US20090291938A1 (TAKEDA PHARMACEUTICAL COMPANY LIMITED, priority 2007, published 2009)

Tested on: HT29 human colorectal adenocarcinoma cell line
Experiment: cell proliferation assay (Cell Titer-Glo luminescent cell viability assay)
Type: cell-based
Conditions: HT-29, 72 h, read-out: pIC50 (converted)
Procedure: The cell culture and proliferation assay may be carried out as follows: the HT29 human colorectal adenocarcinoma cell line (ATCC, USA) was maintained in Dulbecco's Modified Eagle's Medium (Invitrogen, USA) supplemented with 10% fetal bovine serum (JRH, USA). The cell proliferation assay was carried out with the Cell Titer-Glo luminescent cell viability assay (Promega, USA) according to the manufacture's instruction after the 72 hr treatment of the cells in the presence of the compounds. The cell viability was shown as a percentage of DMSO treated cells.

| SMILES | IC50 [nM] |
| --- | --- |
| COc1cc(C(=O)NC2CCN(C)CC2)ccc1Nc1ncc2c(n1)N(C1CCCCC1)CC(C)(C)C(=O)N2C [Compound 109, 4-(9-cyclohexyl-5,7,7-trimethyl-6-oxo-6,7,8,9-tetrahydro-5H-pyrimido[4,5-b][1,4]diazepin-2-ylamino)-3-methoxy-N-(1-methylpiperidin-4-yl)benzamide] | 1 to 2.51 |
| CN1CCC(NC(=O)c2ccc(Nc3ncc4c(n3)N(C3CCCC3)CC(C)(C)C(=O)N4C)c(O)c2)CC1 [Compound 121] | 3.16 to 10 |
| CC(C)Oc1cc(C(=O)NC2CCN(C)CC2)ccc1Nc1ncc2c(n1)N(C1CCCC1)CC(C)(C)C(=O)N2C [Compound 122, 4-(9-cyclopentyl-5,7,7-trimethyl-6-oxo-6,7,8,9-tetrahydro-5H-pyrimido[4,5-b][1,4]diazepin-2-ylamino)-3-isopropoxy-N-(1-methylpiperidin-4-yl)benzamide] | > 10 |
| CN1CCC(NC(=O)c2ccc(Nc3ncc4c(n3)N(C3CCCC3)CC(C)(C)C(=O)N4C)c(OC(F)F)c2)CC1 [Compound 127, 4-(9-Cyclopentyl-5,7,7-trimethyl-6-oxo-6,7,8,9-tetrahydro-5H-pyrimido[4,5-b][1,4]diazepin-2-ylamino)-3-(difluoromethoxy)-N-(1-methylpiperidin-4-yl)benzamide] | > 10 |
| CCC1(C)CN(C2CCCC2)c2nc(Nc3ccc(C(=O)NC4CCN(C)CC4)cc3OC)ncc2N(C)C1=O (stereo not drawn) [Compound 131, 4-(9-Cyclopentyl-7-ethyl-5,7-dimethyl-6-oxo-6,7,8,9-tetrahydro-5H-pyrimido[4,5-b][1,4]diazepin-2-ylamino)-3-methoxy-N-(1-methylpiperidin-4-yl)benzamide] | 3.16 to 10 |

Same assay, conditions: HT-29, cell proliferative assay, HT29 cells, 72 hr treatment, values given as ranges, read-out: pIC50 (converted)

| SMILES | IC50 [nM] |
| --- | --- |
| COc1cc(C(=O)N[C@@H]2CCCNC2)ccc1Nc1ncc2c(n1)N(C1CCCC1)CC(C)(C)C(=O)N2C [Compound 100, (R)-4-(9-cyclopentyl-5,7,7-trimethyl-6-oxo-6,7,8,9-tetrahydro-5H-pyrimido[4,5-b][1,4]diazepin-2-ylamino)-3-methoxy-N-(piperidin-3-yl)benzamide] | 3.16 to 10 |
| COc1cc(C(=O)N[C@H]2CCCNC2)ccc1Nc1ncc2c(n1)N(C1CCCC1)CC(C)(C)C(=O)N2C [Compound 101, (S)-4-(9-cyclopentyl-5,7,7-trimethyl-6-oxo-6,7,8,9-tetrahydro-5H-pyrimido[4,5-b][1,4]diazepin-2-ylamino)-3-methoxy-N-(piperidin-3-yl)benzamide] | 1 to 2.51 |
| COc1cc(C(=O)N[C@H]2CC[C@H](O)CC2)ccc1Nc1ncc2c(n1)N(C1CCCC1)CC(C)(C)C(=O)N2C [Compound 103, 4-(9-cyclopentyl-5,7,7-trimethyl-6-oxo-6,7,8,9-tetrahydro-5H-pyrimido[4,5-b][1,4]diazepin-2-ylamino)-N-((1R,4R)-4-hydroxycyclohexyl)-3-methoxybenzamide] | 1 to 2.51 |
| COc1cc(C(=O)N[C@@H]2CCCNC2)ccc1Nc1ncc2c(n1)N(C1CCCCC1)CC(C)(C)C(=O)N2C [Compound 110, (R)-4-(9-cyclohexyl-5,7,7-trimethyl-6-oxo-6,7,8,9-tetrahydro-5H-pyrimido[4,5-b][1,4]diazepin-2-ylamino)-3-methoxy-N-(piperidin-3-yl)benzamide] | 1 to 2.51 |
| COc1cc(C(=O)N[C@H]2CCCNC2)ccc1Nc1ncc2c(n1)N(C1CCCCC1)CC(C)(C)C(=O)N2C [Compound 111, (S)-4-(9-cyclohexyl-5,7,7-trimethyl-6-oxo-6,7,8,9-tetrahydro-5H-pyrimido[4,5-b][1,4]diazepin-2-ylamino)-3-methoxy-N-(piperidin-3-yl)benzamide] | 1 to 2.51 |
| CCN1CCC(NC(=O)c2ccc(Nc3ncc4c(n3)N(C3CCCCC3)CC(C)(C)C(=O)N4C)c(OC)c2)CC1 [Compound 113, 4-(9-cyclohexyl-5,7,7-trimethyl-6-oxo-6,7,8,9-tetrahydro-5H-pyrimido[4,5-b][1,4]diazepin-2-ylamino)-N-(1-ethylpiperidin-4-yl)-3-methoxybenzamide] | < 1 |
| COc1cc(C(=O)NC2CCNCC2)ccc1Nc1ncc2c(n1)N(C1CCCCC1)CC(C)(C)C(=O)N2C [Compound 116, 4-(9-cyclohexyl-5,7,7-trimethyl-6-oxo-6,7,8,9-tetrahydro-5H-pyrimido[4,5-b][1,4]diazepin-2-ylamino)-3-methoxy-N-(piperidin-4-yl)benzamide] | 3.16 to 10 |
| COc1cc(C(=O)NC2CCCNCC2)ccc1Nc1ncc2c(n1)N(C1CCCCC1)CC(C)(C)C(=O)N2C (stereo not drawn) [Compound 119, N-(azepan-4-yl)-4-(9-cyclohexyl-5,7,7-trimethyl-6-oxo-6,7,8,9-tetrahydro-5H-pyrimido[4,5-b][1,4]diazepin-2-ylamino)-3-methoxybenzamide] | 3.16 to 10 |
| CCCOc1cc(C(=O)NC2CCN(C)CC2)ccc1Nc1ncc2c(n1)N(C1CCCC1)CC(C)(C)C(=O)N2C [Compound 124, 4-(9-cyclopentyl-5,7,7-trimethyl-6-oxo-6,7,8,9-tetrahydro-5H-pyrimido[4,5-b][1,4]diazepin-2-ylamino)-N-(1-methylpiperidin-4-yl)-3-propoxybenzamide] | > 10 |
| CC[C@@]1(C)CN(C2CCCC2)c2nc(Nc3ccc(C(=O)NC4CN(C)C4)cc3OC)ncc2N(C)C1=O [Compound 132, (S)-4-(9-cyclopentyl-7-ethyl-5,7-dimethyl-6-oxo-6,7,8,9-tetrahydro-5H-pyrimido[4,5-b][1,4]diazepin-2-ylamino)-3-methoxy-N-(1-methylazetidin-3-yl)benzamide] | 3.16 to 10 |

Now from value to compound:

| IC50 [nM] | SMILES |
| --- | --- |
| 1 to 2.51 | COc1cc(C(=O)N[C@H]2CCN(C)C2)ccc1Nc1ncc2c(n1)N(C1CCCC1)CC(C)(C)C(=O)N2C [Compound 97, (S)-4-(9-cyclopentyl-5,7,7-trimethyl-6-oxo-6,7,8,9-tetrahydro-5H-pyrimido[4,5-b][1,4]diazepin-2-ylamino)-3-methoxy-N-(1-methylpyrrolidin-3-yl)benzamide] |
| 1 to 2.51 | COc1cc(C(=O)N[C@@H]2CCCN(C)C2)ccc1Nc1ncc2c(n1)N(C1CCCC1)CC(C)(C)C(=O)N2C [Compound 98, (R)-4-(9-cyclopentyl-5,7,7-trimethyl-6-oxo-6,7,8,9-tetrahydro-5H-pyrimido[4,5-b][1,4]diazepin-2-ylamino)-3-methoxy-N-(1-methylpiperidin-3-yl)benzamide] |
| < 1 | COc1cc(C(=O)N[C@H]2CCCN(C)C2)ccc1Nc1ncc2c(n1)N(C1CCCC1)CC(C)(C)C(=O)N2C [Compound 99, (S)-4-(9-cyclopentyl-5,7,7-trimethyl-6-oxo-6,7,8,9-tetrahydro-5H-pyrimido[4,5-b][1,4]diazepin-2-ylamino)-3-methoxy-N-(1-methylpiperidin-3-yl)benzamide] |
| < 1 | CONC(=O)c1ccc(Nc2ncc3c(n2)N(C2CCCC2)CC(C)(C)C(=O)N3C)c(OC)c1 [Compound 102, 4-(9-cyclopentyl-5,7,7-trimethyl-6-oxo-6,7,8,9-tetrahydro-5H-pyrimido[4,5-b][1,4]diazepin-2-ylamino)-N,3-dimethoxybenzamide] |
| < 1 | COc1cc(C(=O)NN2CCOCC2)ccc1Nc1ncc2c(n1)N(C1CCCC1)CC(C)(C)C(=O)N2C [Compound 104, 4-(9-cyclopentyl-5,7,7-trimethyl-6-oxo-6,7,8,9-tetrahydro-5H-pyrimido[4,5-b][1,4]diazepin-2-ylamino)-3-methoxy-N-morpholinobenzamide] |
| 1 to 2.51 | COc1cc(C(=O)NN2CCN(CCO)CC2)ccc1Nc1ncc2c(n1)N(C1CCCC1)CC(C)(C)C(=O)N2C [Compound 105, 4-(9-cyclopentyl-5,7,7-trimethyl-6-oxo-6,7,8,9-tetrahydro-5H-pyrimido[4,5-b][1,4]diazepin-2-ylamino)-N-(4-(2-hydroxyethyl)piperazin-1-yl)-3-methoxybenzamide] |
| < 1 | COc1cc(C(=O)NN2CCN(C)CC2)ccc1Nc1ncc2c(n1)N(C1CCCC1)CC(C)(C)C(=O)N2C [Compound 106, 4-(9-cyclopentyl-5,7,7-trimethyl-6-oxo-6,7,8,9-tetrahydro-5H-pyrimido[4,5-b][1,4]diazepin-2-ylamino)-3-methoxy-N-(4-methylpiperazin-1-yl)benzamide] |
| 3.16 to 10 | COc1cc(C(N)=O)ccc1Nc1ncc2c(n1)N(C1CCCC1)CC(C)(C)C(=O)N2C [Compound 107, 4-(9-cyclopentyl-5,7,7-trimethyl-6-oxo-6,7,8,9-tetrahydro-5H-pyrimido[4,5-b][1,4]diazepin-2-ylamino)-3-methoxybenzamide] |
| 1 to 2.51 | COc1cc(C(=O)NN2CCN(C)CC2)ccc1Nc1ncc2c(n1)N(C1CCCCC1)CC(C)(C)C(=O)N2C [Compound 112, 4-(9-cyclohexyl-5,7,7-trimethyl-6-oxo-6,7,8,9-tetrahydro-5H-pyrimido[4,5-b][1,4]diazepin-2-ylamino)-3-methoxy-N-(4-methylpiperazin-1-yl)benzamide] |
| 3.16 to 10 | COc1cc(C(=O)NN2CCN(C3CCCC3)CC2)ccc1Nc1ncc2c(n1)N(C1CCCCC1)CC(C)(C)C(=O)N2C [Compound 117, 4-(9-cyclohexyl-5,7,7-trimethyl-6-oxo-6,7,8,9-tetrahydro-5H-pyrimido[4,5-b][1,4]diazepin-2-ylamino)-N-(4-cyclopentylpiperazin-1-yl)-3-methoxybenzamide] |
| 3.16 to 10 | COc1cc(C(=O)NC2CNC2)ccc1Nc1ncc2c(n1)N(C1CCCCC1)CC(C)(C)C(=O)N2C [Compound 118, N-(azetidin-3-yl)-4-(9-cyclohexyl-5,7,7-trimethyl-6-oxo-6,7,8,9-tetrahydro-5H-pyrimido[4,5-b][1,4]diazepin-2-ylamino)-3-methoxybenzamide] |
| < 1 | CCOc1cc(C(=O)NC2CCN(C)CC2)ccc1Nc1ncc2c(n1)N(C1CCCC1)CC(C)(C)C(=O)N2C [Compound 123, 4-(9-cyclopentyl-5,7,7-trimethyl-6-oxo-6,7,8,9-tetrahydro-5H-pyrimido[4,5-b][1,4]diazepin-2-ylamino)-3-ethoxy-N-(1-methylpiperidin-4-yl)benzamide] |
